Data as given in ChEMBL document CHEMBL1201862, “PubChem BioAssay data set” (2004).
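Values below derive from 48-hour exposures of cells grown in 96-well plates, with endpoints linearly interpolated between the two concentrations bracketing the appropriate inhibition level. Here, GI50 denotes the concentration required for 50% inhibition of growth.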 Activity calls are given as the source filed them. No stated cut-off is given here; in the data, active = GI50 up to about 1.1 µM and inactive = higher.

What was measured:
Experiment in all cases: growth of human tumour cells (NCI), 48 h
[1] = tested on: COLO 205
[2] = tested on: SW-620
[3] = tested on: IGROV-1
[4] = tested on: OVCAR-5
[5] = tested on: TK-10
[6] = tested on: A498
[7] = tested on: SK-MEL-28
[8] = tested on: SNB-75
[9] = tested on: LOX IMVI
[10] = tested on: SF-295
[11] = tested on: OVCAR-8
[12] = tested on: UACC-257
[13] = tested on: SNB-19
[14] = tested on: MOLT-4
[15] = tested on: RPMI-8226

Measured: GI50

CCOc1ccc(NC2=NC(=O)C(CC(=O)Nc3ccc(Cl)cc3Cl)S2)cc1 (stereo not given)
inactive: [1] > 100 µM | [2] > 100 µM | [3] > 100 µM | [4] > 100 µM | [5] > 100 µM | [6] 68.7 µM | [7] > 100 µM | [8] > 100 µM | [9] > 100 µM | [10] > 100 µM | [11] > 100 µM | [12] > 100 µM | [13] > 100 µM | [14] 43.8 µM | [15] > 100 µM

O=[N+]([O-])c1cccc(C2=NN(c3ccccc3)C3c4cc(Br)ccc4OCC23)c1 (stereo not given)
inactive: [1] > 100 µM | [2] > 100 µM | [3] > 100 µM | [4] > 100 µM | [5] > 100 µM | [6] > 100 µM | [7] > 100 µM | [8] > 100 µM | [9] > 100 µM | [10] > 100 µM | [11] > 100 µM | [12] > 100 µM | [13] > 100 µM | [14] > 100 µM | [15] > 100 µM

NC(=O)c1cc(C2OC(CO)C(O)C2O)nn1-c1ccc([N+](=O)[O-])cc1 (stereo not given)
inactive: [1] > 100 µM | [2] 43.3 µM | [3] > 100 µM | [4] > 100 µM | [5] > 100 µM | [6] > 100 µM | [7] > 100 µM | [8] > 100 µM | [9] > 100 µM | [10] > 100 µM | [11] > 100 µM | [12] > 100 µM | [13] > 100 µM | [14] > 100 µM | [15] 88.9 µM

O=C(Nc1nc2ncn(CCNCCn3cnc4nc(NC(=O)c5ccccc5)[nH]c(=O)c43)c2c(=O)[nH]1)c1ccccc1
inactive: [1] > 100 µM | [2] > 100 µM | [3] > 100 µM | [4] > 100 µM | [5] > 100 µM | [6] > 100 µM | [7] > 100 µM | [8] > 100 µM | [9] > 100 µM | [10] > 100 µM | [11] > 100 µM | [12] > 100 µM | [13] > 100 µM | [14] > 100 µM | [15] > 100 µM

N=CCCN(CCC=N)c1ccc(/C=C2\CN(NC(=O)c3ccc(Cl)cc3)C(c3ccccc3)=N2)cc1
inactive: [1] > 100 µM | [2] 15.6 µM | [3] > 100 µM | [4] > 100 µM | [5] > 100 µM | [6] > 100 µM | [7] > 100 µM | [8] > 100 µM | [9] 75 µM | [10] > 100 µM | [11] > 100 µM | [12] > 100 µM | [13] > 100 µM | [14] > 100 µM | [15] 26.4 µM
